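Dose response: 5 concentrations. Exposure: 48 h. Format: 96-well plates. Endpoint: linear interpolation; highest concentration if not reached. Abbreviation: GI50, concentration required for 50% inhibition of growth.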 Active and inactive are the calls of the source. Rule as the data show it: active = GI50 up to about 1.1 µM and inactive = higher.
How the values were obtained:
Assay in all cases: NCI-60 cell line screen, 48 h
OVCAR-4 = system: OVCAR-4
SK-MEL-2 = system: SK-MEL-2
MOLT-4 = system: MOLT-4
SK-MEL-28 = system: SK-MEL-28
A549 = system: A549
DMS-273 = system: DMS-273
SF-268 = system: SF-268
U-251 = system: U-251
M14 = system: M14
COLO 205 = system: COLO 205
A498 = system: A498
Malme-3M = system: Malme-3M
SF-539 = system: SF-539
SN12C = system: SN12C
LOX IMVI = system: LOX IMVI
KM12 = system: KM12
OVCAR-5 = system: OVCAR-5
HOP-92 = system: HOP-92

Measured: GI50

CC1(OCc2ccccc2)C(=O)N2C1N(C(=O)OCc1ccccc1)CC2(C)C (centres undefined)
inactive: OVCAR-4 > 100 µM | SK-MEL-2 69.3 µM | MOLT-4 28.2 µM | SK-MEL-28 > 100 µM | A549 38.8 µM | DMS-273 53.6 µM | SF-268 > 100 µM | U-251 49.3 µM | M14 66.8 µM | COLO 205 94.6 µM | A498 56.9 µM | Malme-3M 80 µM | SF-539 > 100 µM | SN12C > 100 µM | LOX IMVI 46.6 µM

C=CC(Br)(CBr)CCC(Br)C(C)(C)Br (centres undefined)
inactive: OVCAR-4 17.1 µM | SK-MEL-2 13.6 µM | MOLT-4 9.51 µM | SK-MEL-28 15.9 µM | A549 14.6 µM | DMS-273 10.7 µM | SF-268 17.1 µM | U-251 14.2 µM | KM12 9.14 µM | M14 15 µM | COLO 205 15 µM | OVCAR-5 18.5 µM | Malme-3M 16.6 µM | SF-539 15.9 µM | SN12C 15.6 µM | HOP-92 15.7 µM | LOX IMVI 12.4 µM

CCOC(=O)C(C)(C)Oc1ccc2c(-c3ccc(Cl)cc3)c(-c3ccc(Cl)cc3)c(=O)oc2c1
inactive: OVCAR-4 > 100 µM | SK-MEL-2 > 100 µM | MOLT-4 > 100 µM | SK-MEL-28 > 100 µM | A549 > 100 µM | DMS-273 > 100 µM | SF-268 > 100 µM | U-251 > 100 µM | M14 > 100 µM | COLO 205 > 100 µM | A498 > 100 µM | Malme-3M > 100 µM | SF-539 > 100 µM | SN12C > 100 µM | LOX IMVI > 100 µM

CCOC(=O)C(C)(C)Oc1ccc2c(-c3ccccc3)cc(=O)oc2c1
inactive: OVCAR-4 35.4 µM | SK-MEL-2 22.6 µM | MOLT-4 20.2 µM | SK-MEL-28 35.6 µM | A549 38.9 µM | DMS-273 29 µM | SF-268 45.8 µM | U-251 36.3 µM | M14 36.6 µM | COLO 205 21.6 µM | A498 30.2 µM | Malme-3M 28.6 µM | SF-539 31.8 µM | SN12C 37 µM | LOX IMVI 20.2 µM

c1ccc2c(c1)N=C(c1cccc3ccccc13)CC(c1ccc3c(c1)OCO3)S2 (centres undefined)
inactive: OVCAR-4 > 100 µM | SK-MEL-2 > 100 µM | MOLT-4 > 100 µM | SK-MEL-28 > 10 µM | A549 > 100 µM | DMS-273 > 100 µM | SF-268 > 100 µM | U-251 73.3 µM | KM12 > 100 µM | M14 25.4 µM | COLO 205 > 100 µM | A498 49 µM | OVCAR-5 > 100 µM | Malme-3M 70.6 µM | SF-539 > 100 µM | SN12C > 100 µM | LOX IMVI > 100 µM

Reference: ChEMBL document CHEMBL1201862, “PubChem BioAssay data set” (2004)
